Bridge positions count the residues as written; N and C are the ends. Square brackets hold non-standard residues; d marks the D form. Peptide text beside a SMILES is read from it. * marks the point of attachment. ξ: configuration not given here. Phe(4-CH2CH2COOH) = N[C@@H](Cc1ccc(CCC(=O)O)cc1)C(=O)O; Phe(3-CF3) = N[C@@H](Cc1cccc(C(F)(F)F)c1)C(=O)O; Phe(4-COOH) = N[C@@H](Cc1ccc(C(=O)O)cc1)C(=O)O; Bip = N[C@@H](Cc1ccc(-c2ccccc2)cc1)C(=O)O; Phe(3-CN) = N#Cc1cccc(C[C@H](N)C(=O)O)c1; Phe(4-CN) = N#Cc1ccc(C[C@H](N)C(=O)O)cc1; NH(CH2)14COOH = O=C(O)CCCCCCCCCCCCCCN*; Phe(3-Me) = Cc1cccc(C[C@H](N)C(=O)O)c1; Phe(4-Me) = Cc1ccc(C[C@H](N)C(=O)O)cc1; Val(3-OH) = CC(C)(O)[C@H](N)C(=O)O; Cha = N[C@@H](CC1CCCCC1)C(=O)O; Cit = NC(=O)NCCC[C@H](N)C(=O)O; Thr(3ξ) = CC(O)[C@H](N)C(=O)O; PEG4 = NCCOCCOCCOCCOCCC(=O)O; Pen = CC(C)(S)[C@H](N)C(=O)O; Carboxymethyl = O=C(O)C*; Nle = CCCC[C@H](N)C(=O)O; Orn = NCCC[C@H](N)C(=O)O; Aun = NCCCCCCCCCCC(=O)O; Dab = NCC[C@H](N)C(=O)O; Dap = NC[C@H](N)C(=O)O; AEEA = NCCOCCOCC(=O)O
biological target: T1, PD-1/PD-L1 interaction (PE-labeled human PD-L1-Ig binding to Jurkat cell line over-expressing human PD-1) (Homo sapiens, UniProt Q15116); test: Jurkat-PD-1 Cell Binding High-Content Screening Assay (CBA); type: cell-based; conditions: Jurkat cell line over-expressing human PD-1; PE-labeled PD-L1-Ig 20 nM final; read-out: Jurkat hPD1-PDL1 IC50
T1 construct: expressed in transfected cells; host or cells: Jurkat
How it was run: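 Jurkat cells over-expressing human PD-1 (8×10^3 per well, DMEM/10% FCS) preincubated with compound 2 h at 37° C, then PE-labeled human PD-L1-Ig (20 nM final) added for 1 h. Cells fixed with paraformaldehyde, Hoechst-stained, and bound fluorescence quantified by high-content imaging.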

T1 sequence (Q15116 25-288): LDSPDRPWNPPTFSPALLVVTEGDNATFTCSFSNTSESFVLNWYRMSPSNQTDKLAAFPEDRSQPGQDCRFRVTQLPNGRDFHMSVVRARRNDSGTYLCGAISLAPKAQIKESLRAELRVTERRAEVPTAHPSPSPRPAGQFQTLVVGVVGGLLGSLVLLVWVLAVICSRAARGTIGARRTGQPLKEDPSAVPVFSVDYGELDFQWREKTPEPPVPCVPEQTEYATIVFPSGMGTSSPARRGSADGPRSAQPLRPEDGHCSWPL

Row | IC50 [nM] | SMILES
1 | 14.7 | CC(C)C[C@H]1NC(=O)[C@H](CCCN)NC(=O)[C@H](Cc2ccc(O)cc2)NC(=O)[C@H](Cc2ccc(-c3ccccc3)cc2)NC(=O)[C@H](C(C)C)NC(=O)[C@H](Cc2cccc(C#N)c2)NC(=O)[C@H](CC(=O)O)NC(=O)[C@H](Cc2ccc(OCC(=O)O)cc2)NC(=O)[C@H](CN)NC(=O)CSC[C@@H](C(=O)N[C@@H](CCN)C(=O)NCCOCCOCC(=O)NCCCCCCCCCCC(=O)O)NC(=O)[C@H](CCCN)NC(=O)[C@H](C(C)C)NC(=O)[C@H](CC2CCCCC2)NC(=O)[C@H](CCN)NC1=O [Compound 1291] ({CH2CO}-[Dap]Y(Carboxymethyl)D[Phe(3-CN)]V[Bip]Y[Orn][dL][Dab][Cha]V[Orn]C[Dab][AEEA][Aun]-OH; thioether N-14)
2 | 27 | Cc1cccc(C[C@@H]2NC(=O)[C@H](CC(=O)O)NC(=O)[C@H](Cc3ccc(OCC(=O)O)cc3)NC(=O)[C@H](CN)NC(=O)CSC[C@@H](C(=O)N[C@@H](CCC(=O)O)C(=O)NCCCCCCCCCCC(=O)O)NC(=O)[C@H]([C@@H](C)O)NC(=O)[C@H](C(C)C)NC(=O)[C@H](CC3CCCCC3)NC(=O)[C@H](Cc3cnc[nH]3)NC(=O)[C@@H](CC(C)C)NC(=O)[C@H](CCCN)NC(=O)[C@H](C(C)C)NC(=O)[C@H](Cc3ccc(-c4ccccc4)cc3)NC(=O)[C@H](C(C)C)NC2=O)c1 [Compound 1108] ({CH2CO}-[Dap]Y(Carboxymethyl)D[Phe(3-Me)]V[Bip]V[Orn][dL]H[Cha]VTCE[Aun]-OH; thioether N-14)
3 | 15.5 | Cc1cccc(C[C@@H]2NC(=O)[C@H](CC(=O)O)NC(=O)[C@H](Cc3ccc(OCC(=O)O)cc3)NC(=O)[C@H](CN)NC(=O)CSC[C@@H](C(=O)N[C@@H](CCCCN)C(=O)NCCCCCCCCCCC(=O)O)NC(=O)[C@H](CN)NC(=O)[C@H](C(C)C)NC(=O)[C@H](CC3CCCCC3)NC(=O)[C@H](CCN)NC(=O)[C@@H](CC(C)C)NC(=O)[C@H](CCCN)NC(=O)[C@H](CCCNC(N)=O)NC(=O)[C@H](Cc3ccc(-c4ccccc4)cc3)NC(=O)[C@H](C(C)C)NC2=O)c1 [Compound 2637] ({CH2CO}-[Dap]Y(Carboxymethyl)D[Phe(3-Me)]V[Bip][Cit][Orn][dL][Dab][Cha]V[Dap]CK[Aun]-OH; thioether N-14)
4 | 34.3 | Cc1cccc(C[C@@H]2NC(=O)[C@H](CC(=O)O)NC(=O)[C@H](Cc3ccc(OCC(=O)O)cc3)NC(=O)[C@H](CN)NC(=O)CSC[C@@H](C(=O)N[C@@H](CCN)C(=O)NCCCCCCCCCCC(=O)O)NC(=O)[C@@H]([C@H](C)O)NC(=O)[C@H](C(C)C)NC(=O)[C@H](CC3CCCCC3)NC(=O)[C@H](CCN)NC(=O)[C@@H](CC(C)C)NC(=O)[C@H](CCCN)NC(=O)[C@H](Cc3ccc(O)cc3)NC(=O)[C@H](Cc3ccc(-c4ccccc4)cc3)NC(=O)[C@H](C(C)C)NC2=O)c1 [Compound 2722] ({CH2CO}-[Dap]Y(Carboxymethyl)D[Phe(3-Me)]V[Bip]Y[Orn][dL][Dab][Cha]V[dT]C[Dab][Aun]-OH; thioether N-14)
5 | 113 | Cc1cccc(C[C@@H]2NC(=O)[C@H](CC(=O)O)NC(=O)[C@H](Cc3ccc(OCC(=O)O)cc3)NC(=O)[C@H](CN)NC(=O)CSC(C)(C)[C@@H](C(=O)N[C@@H](CCN)C(=O)NCCCCCCCCCCC(=O)O)NC(=O)[C@H]([C@@H](C)O)NC(=O)[C@H](C(C)C)NC(=O)[C@H](CC3CCCCC3)NC(=O)[C@H](CCN)NC(=O)[C@@H](CC(C)C)NC(=O)[C@H](CCCN)NC(=O)[C@H](Cc3ccc(O)cc3)NC(=O)[C@H](Cc3ccc(-c4ccccc4)cc3)NC(=O)[C@H](C(C)C)NC2=O)c1 [Compound 2753] ({CH2CO}-[Dap]Y(Carboxymethyl)D[Phe(3-Me)]V[Bip]Y[Orn][dL][Dab][Cha]VT[Pen][Dab][Aun]-OH; thioether N-14)
6 | 31.7 | CC(C)C[C@H]1NC(=O)[C@H](CCCN)NC(=O)[C@H](C(C)C)NC(=O)[C@H](Cc2ccc(-c3ccccc3)cc2)NC(=O)[C@H](C(C)C)NC(=O)[C@H](Cc2c[nH]c3ccccc23)NC(=O)[C@H](CC(=O)O)NC(=O)[C@H](Cc2ccc(OCC(=O)O)cc2)NC(=O)[C@H](Cc2ccc(OCC(=O)O)cc2)NC(=O)CSC[C@@H](C(=O)NCCCCCCCCCCC(=O)O)NC(=O)[C@H](CN)NC(=O)[C@H](C(C)C)NC(=O)[C@H](CC2CCCCC2)NC(=O)[C@H](CCN)NC1=O [Compound 2608] ({CH2CO}-Y(Carboxymethyl)Y(Carboxymethyl)DWV[Bip]V[Orn][dL][Dab][Cha]V[Dap]C[Aun]-OH; thioether N-14)
7 | 34.1 | Cc1cccc(C[C@@H]2NC(=O)[C@H](CC(=O)O)NC(=O)[C@H](Cc3ccc(CCC(=O)O)cc3)NC(=O)[C@H](CN)NC(=O)CSC[C@@H](C(=O)N[C@@H](CCN)C(=O)N[C@@H](CO)C(=O)NCCCCCCCCCCC(=O)O)NC(=O)[C@H]([C@@H](C)O)NC(=O)[C@H](C(C)C)NC(=O)[C@H](CC3CCCCC3)NC(=O)[C@H](CCN)NC(=O)[C@@H](CC(C)C)NC(=O)[C@H](CCCN)NC(=O)[C@H](CCCNC(N)=O)NC(=O)[C@H](Cc3ccc(-c4ccccc4)cc3)NC(=O)[C@H](C(C)C)NC2=O)c1 [Compound 2811] ({CH2CO}-[Dap][Phe(4-CH2CH2COOH)]D[Phe(3-Me)]V[Bip][Cit][Orn][dL][Dab][Cha]VTC[Dab]S[Aun]-OH; thioether N-14)

More lines, now with the values behind:

Row | SMILES | IC50 [nM]
8 | CCCC[C@@H]1NC(=O)CSC[C@@H](C(=O)N[C@@H](CCN)C(=O)NCCOCCOCCOCCOCCC(=O)NCCCCCCCCCCCCCCC(=O)O)NC(=O)[C@H](CO)NC(=O)[C@H](C(C)(C)O)NC(=O)[C@H](CC2CCCCC2)NC(=O)[C@H](CCN)NC(=O)[C@@H](CC(C)C)NC(=O)[C@H](CCCN)NC(=O)[C@H](Cc2ccc(C(=O)O)cc2)NC(=O)[C@H](Cc2ccc(-c3ccccc3)cc2)NC(=O)[C@H](Cc2ccc(C(=O)O)cc2)NC(=O)[C@H](Cc2cccc(C(F)(F)F)c2)NC(=O)[C@H](CC(=O)O)NC(=O)[C@H](Cc2ccc(OCC(=O)O)cc2)NC1=O [Compound 2912] ({CH2CO}-[Nle]Y(Carboxymethyl)D[Phe(3-CF3)][Phe(4-COOH)][Bip][Phe(4-COOH)][Orn][dL][Dab][Cha][Val(3-OH)]SC[Dab][PEG4]-{NH(CH2)14COOH}; thioether N-14) | 240
9 | Cc1cccc(C[C@@H]2NC(=O)[C@H](CC(=O)O)NC(=O)[C@H](Cc3cccc(C#N)c3)NC(=O)[C@H]([C@@H](C)O)NC(=O)CSC[C@@H](C(=O)N[C@@H](CCN)C(=O)NCCCCCCCCCCC(=O)O)NC(=O)[C@H](CO)NC(=O)[C@H](C(C)(C)O)NC(=O)[C@H](CC3CCCCC3)NC(=O)[C@H](CCN)NC(=O)[C@@H](CC(C)C)NC(=O)[C@H](CCCN)NC(=O)[C@H](Cc3ccc(OCC(=O)O)cc3)NC(=O)[C@H](Cc3ccc(-c4ccccc4)cc3)NC(=O)[C@H](Cc3ccc(OCC(=O)O)cc3)NC2=O)c1 [Compound 2196] ({CH2CO}-T[Phe(3-CN)]D[Phe(3-Me)]Y(Carboxymethyl)[Bip]Y(Carboxymethyl)[Orn][dL][Dab][Cha][Val(3-OH)]SC[Dab][Aun]-OH; thioether N-14) | 24.4
10 | Cc1cccc(C[C@@H]2NC(=O)[C@H](CC(=O)O)NC(=O)[C@H](Cc3ccc(C(=O)O)cc3)NC(=O)[C@H](Cc3ccc(C#N)cc3)NC(=O)CSC[C@@H](C(=O)N[C@@H](CCN)C(=O)NCCCCCCCCCCC(=O)O)NC(=O)[C@H](CO)NC(=O)[C@H](C(C)(C)O)NC(=O)[C@H](CC3CCCCC3)NC(=O)[C@H](CCN)NC(=O)[C@@H](CC(C)C)NC(=O)[C@H](CCCN)NC(=O)[C@H](Cc3ccc(OCC(=O)O)cc3)NC(=O)[C@H](Cc3ccc(-c4ccccc4)cc3)NC(=O)[C@H](Cc3ccc(OCC(=O)O)cc3)NC2=O)c1 [Compound 1003] ({CH2CO}-[Phe(4-CN)][Phe(4-COOH)]D[Phe(3-Me)]Y(Carboxymethyl)[Bip]Y(Carboxymethyl)[Orn][dL][Dab][Cha][Val(3-OH)]SC[Dab][Aun]-OH; thioether N-14) | 14.8
11 | CC(C)C[C@H]1NC(=O)[C@H](CCCN)NC(=O)[C@H](Cc2ccc(O)cc2)NC(=O)[C@H](Cc2ccc(-c3ccccc3)cc2)NC(=O)[C@H](C(C)C)NC(=O)[C@H](Cc2c[nH]c3ccccc23)NC(=O)[C@H](CC(=O)O)NC(=O)[C@H](Cc2ccc(OCC(=O)O)cc2)NC(=O)[C@H](CCCNC(=N)N)NC(=O)CSC[C@@H](C(=O)N[C@@H](CCN)C(=O)NCCCCCCCCCCC(=O)O)NC(=O)[C@H](CCCNC(N)=O)NC(=O)[C@H](C(C)C)NC(=O)[C@H](CC2CCCCC2)NC(=O)[C@H](CCN)NC1=O [Compound 3411] ({CH2CO}-RY(Carboxymethyl)DWV[Bip]Y[Orn][dL][Dab][Cha]V[Cit]C[Dab][Aun]-OH; thioether N-14) | 11
12 | Cc1ccc(C[C@@H]2NC(=O)[C@H](Cc3ccc(-c4ccccc4)cc3)NC(=O)[C@H](Cc3ccc(O)cc3)NC(=O)[C@H](Cc3cccc(C)c3)NC(=O)[C@H](CC(=O)O)NC(=O)[C@H](Cc3ccc(OCC(=O)O)cc3)NC(=O)[C@H](CN)NC(=O)CSC[C@@H](C(=O)N[C@@H](CCN)C(=O)NCCOCCOCC(=O)NCCCCCCCCCCC(=O)O)NC(=O)[C@H](CCCN)NC(=O)[C@H](C(C)C)NC(=O)[C@H](CC3CCCCC3)NC(=O)[C@H](CCN)NC(=O)[C@@H](CC(C)C)NC(=O)[C@H](CCCN)NC2=O)cc1 [Compound 2054] ({CH2CO}-[Dap]Y(Carboxymethyl)D[Phe(3-Me)]Y[Bip][Phe(4-Me)][Orn][dL][Dab][Cha]V[Orn]C[Dab][AEEA][Aun]-OH; thioether N-14) | 12.9
13 | Cc1cccc(C[C@@H]2NC(=O)[C@H](CC(=O)O)NC(=O)[C@H](Cc3ccc(OCC(=O)O)cc3)NC(=O)[C@H](CCCNC(=N)N)NC(=O)CSC[C@@H](C(=O)NCCOCCOCC(=O)NCCCCCCCCCCC(=O)O)NC(=O)[C@H](C(C)O)NC(=O)[C@H](C(C)C)NC(=O)[C@H](CC3CCCCC3)NC(=O)[C@H](CCN)NC(=O)[C@@H](CC(C)C)NC(=O)[C@H](CCCNC(N)=O)NC(=O)[C@H](Cc3ccc(OCC(=O)O)cc3)NC(=O)[C@H](Cc3ccc(-c4ccccc4)cc3)NC(=O)[C@H](C(C)C)NC2=O)c1 (stereo partly drawn) [Compound 3480] ({CH2CO}-RY(Carboxymethyl)D[Phe(3-Me)]V[Bip]Y(Carboxymethyl)[Cit][dL][Dab][Cha]V[Thr(3ξ)]C[AEEA][Aun]-OH; thioether N-14) | 17.5
